Reference: the supplement of paper PMC10627819

What was measured:
[1] = tested on: S. pneumoniae D39V; experiment: fitness (endpoint OD595 vs no drug) (fraction); higher = more growth
In short: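 Fitness compares growth at the stationary-phase transition with the robust mean of no-drug control wells, as a ratio of optical densities. The ratio is capped at 1. Wells of 384-well plates held 30 µl, or 55 µl for S. pneumoniae, inoculated at OD595 0.01. Readings at OD595 every 30 min for 14 h at 37 °C were corrected against the first reading.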

[2] = tested on: S. aureus Newman; experiment: Bliss interaction score (quartile over a dose matrix) (fitness difference); higher = more antagonism (negative = synergy)
In short: (§1)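 The Bliss score is observed minus expected fitness, where expected fitness is the product of the single-drug fitness values inferred from the combination data. Fitness is the OD595 at the onset of stationary phase over the plate's robust no-drug mean, capped at 1. Scores are summarised by quartiles over technical, biological and donor/recipient replicates.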

[3] = tested on: B. subtilis 168; experiment: as above
In short: as §1

[4] = tested on: S. aureus DSM 20231; experiment: as above
In short: as §1

[5] = tested on: S. pneumoniae D39V; experiment: as above
In short: as §1
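Wherever Bliss interaction score (quartile over a dose matrix) is given: first quartile when negative (synergy) and third quartile when positive (antagonism).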
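Wherever fitness (endpoint OD595 vs no drug) is given: OD595 on entry to stationary phase over no-drug wells; at most 1.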

COc1cccc2c1C(=O)c1c(O)c3c(c(O)c1C2=O)C[C@@](O)(C(=O)CO)C[C@@H]3O[C@H]1C[C@H](N)[C@H](O)[C@H](C)O1 [Doxorubicin] + C[C@@H](O)[C@H]1C(=O)N2C(C(=O)O)=C(SCCNC=N)C[C@H]12 [Imipenem]
fitness, [1]
Conditions | partner 0.005 µg/mL | partner 0.0065 µg/mL | partner 0.01 µg/mL | partner 0.013 µg/mL | partner 0.02 µg/mL | partner 0.026 µg/mL
first compound 0.25 µg/mL | 0.954 | 0.913 | 0.958 | 0.836 | 0.949 | 0.831
first compound 0.5 µg/mL | 0.981 | 0.858 | 0.958 | 0.844 | 0.971 | 0.842
first compound 1 µg/mL | 0.909 | 0.858 | 0.877 | 0.894 | 0.872 | 0.789

Conditions | Bliss interaction score
[2] | -0.0256
[3] | -0.197
[4] | -0.0485
[5] | 0.0651

COc1cccc2c1C(=O)c1c(O)c3c(c(O)c1C2=O)C[C@@](O)(C(=O)CO)C[C@@H]3O[C@H]1C[C@H](N)[C@H](O)[C@H](C)O1 [Doxorubicin] + Clc1ccc(COC(Cn2ccnc2)c2ccc(Cl)cc2Cl)c(Cl)c1 [Miconazole]
fitness, [1]
Conditions | partner 1.073 µg/mL | partner 1.25 µg/mL | partner 2.145 µg/mL | partner 2.5 µg/mL | partner 4.29 µg/mL | partner 5 µg/mL
first compound 0.25 µg/mL | 0.953 | 0.921 | 0.921 | 0.949 | 0.646 | 0.947
first compound 0.5 µg/mL | 0.967 | 0.967 | 0.978 | 0.966 | 0.848 | 0.983
first compound 1 µg/mL | 0.961 | 0.845 | 0.914 | 0.901 | 0.791 | 0.921

Conditions | Bliss interaction score
[2] | -0.074
[3] | 0.0755
[4] | -0.0766
[5] | 0.0804

COc1cccc2c1C(=O)c1c(O)c3c(c(O)c1C2=O)C[C@@](O)(C(=O)CO)C[C@@H]3O[C@H]1C[C@H](N)[C@H](O)[C@H](C)O1 [Doxorubicin] + O=C1CN(/N=C/c2ccc([N+](=O)[O-])o2)C(=O)N1 [Nitrofurantoin]
fitness, [1]
Conditions | partner 1.285 µg/mL | partner 2 µg/mL | partner 2.57 µg/mL | partner 4 µg/mL | partner 8 µg/mL
first compound 0.25 µg/mL | 0.935 | 0.918 | 0.91 | 0.857 | 0.465
first compound 0.5 µg/mL | 0.925 | 0.946 | 0.94 | 0.795 | 0.436
first compound 1 µg/mL | 0.825 | 0.814 | 0.809 | 0.721 | 0.405

[1], partner 5.14 µg/mL, one replicate
Conditions | fitness
first compound 0.25 µg/mL | 0.822
first compound 0.5 µg/mL | 0.858
first compound 1 µg/mL | 0.695

Conditions | Bliss interaction score
[2] | -0.0388
[3] | -0.221
[4] | -0.0576
[5] | 0.0747

C[C@H]1c2cccc(O)c2C(=O)C2=C(O)[C@]3(O)C(=O)C(C(N)=O)=C(O)[C@@H](N(C)C)[C@@H]3[C@@H](O)[C@@H]21 [Doxycycline] + C/C(=C\C(=O)OCCCCCCCCC(=O)O)C[C@@H]1OC[C@H](C[C@@H]2O[C@H]2[C@@H](C)[C@H](C)O)[C@@H](O)[C@H]1O [Pseudomonic acid]
fitness, [1], one replicate
Conditions | partner 0.03 µg/mL | partner 0.06 µg/mL | partner 0.12 µg/mL
first compound 0.003875 µg/mL | 0.973 | 0.887 | 0.585
first compound 0.00775 µg/mL | 0.943 | 0.839 | 0.614

fitness, [1]
Conditions | first compound 0.0155 µg/mL | first compound 0.031 µg/mL | first compound 0.062 µg/mL
partner 0.03 µg/mL | 0.993 | 0.937 | 0.821
partner 0.06 µg/mL | 0.878 | 0.845 | 0.857
partner 0.12 µg/mL | 0.604 | 0.608 | 0.562

Conditions | Bliss interaction score
[2] | -0.0168
[3] | -0.0363
[4] | -0.0104
[5] | 0.0875

C[C@H]1c2cccc(O)c2C(=O)C2=C(O)[C@]3(O)C(=O)C(C(N)=O)=C(O)[C@@H](N(C)C)[C@@H]3[C@@H](O)[C@@H]21 [Doxycycline] + CN[C@H](CC(C)C)C(=O)N[C@H]1C(=O)N[C@@H](CC(N)=O)C(=O)N[C@H]2C(=O)N[C@H]3C(=O)N[C@H](C(=O)N[C@H](C(=O)O)c4cc(O)cc(O)c4-c4cc3ccc4O)[C@H](O)c3ccc(c(Cl)c3)Oc3cc2cc(c3O[C@@H]2O[C@H](CO)[C@@H](O)[C@H](O)[C@H]2O[C@H]2C[C@](C)(N)[C@H](O)[C@H](C)O2)Oc2ccc(cc2Cl)[C@H]1O [Vancomycin]
fitness, [1], one replicate
Conditions | first compound 0.003875 µg/mL | first compound 0.00775 µg/mL | first compound 0.031 µg/mL | first compound 0.062 µg/mL
partner 0.125 µg/mL | 0.882 | 0.989 | – | –
partner 0.25 µg/mL | 0.29 | 0.571 | 0.753 | 0.629
partner 0.5 µg/mL | 0.0216 | 0.0253 | 0.128 | 0.0893

fitness, [1]
Conditions | partner 0.03125 µg/mL | partner 0.0625 µg/mL | partner 0.125 µg/mL | partner 0.25 µg/mL | partner 0.5 µg/mL
first compound 0.0155 µg/mL | 0.903 | 0.876 | 0.913 | 0.802 | 0.105
first compound 0.031 µg/mL | 0.838 | 0.79 | 0.767 | – | –
first compound 0.062 µg/mL | 0.84 | 0.783 | – | – | –

Conditions | Bliss interaction score
[2] | 0.0371
[3] | 0.0535
[4] | 0.0785
[5] | 0.101

C[C@H]1c2cccc(O)c2C(=O)C2=C(O)[C@]3(O)C(=O)C(C(N)=O)=C(O)[C@@H](N(C)C)[C@@H]3[C@@H](O)[C@@H]21 [Doxycycline] + CO[C@H]1/C=C/O[C@@]2(C)Oc3c(C)c(O)c4c(O)c(c(/C=N/N5CCN(C)CC5)c(O)c4c3C2=O)NC(=O)/C(C)=C\C=C\[C@H](C)[C@H](O)[C@@H](C)[C@@H](O)[C@@H](C)[C@H](OC(C)=O)[C@@H]1C [Rifampicin]
[1], one replicate
Conditions | fitness
first compound 0.003875 µg/mL, partner 0.05 µg/mL | 0.802
first compound 0.003875 µg/mL, partner 0.1 µg/mL | 0.36
first compound 0.003875 µg/mL, partner 0.2 µg/mL | 0.109
first compound 0.00775 µg/mL, partner 0.05 µg/mL | 0.864
first compound 0.00775 µg/mL, partner 0.1 µg/mL | 0.494
first compound 0.00775 µg/mL, partner 0.2 µg/mL | 0.207
first compound 0.0155 µg/mL, partner 0.025 µg/mL | 0.912
first compound 0.031 µg/mL, partner 0.025 µg/mL | 0.927
first compound 0.062 µg/mL, partner 0.025 µg/mL | 0.825

fitness, [1]
Conditions | first compound 0.0155 µg/mL | first compound 0.031 µg/mL | first compound 0.062 µg/mL
partner 0.05 µg/mL | 0.863 | 0.861 | –
partner 0.1 µg/mL | – | – | 0.307
partner 0.2 µg/mL | 0.199 | 0.113 | 0.0818

Conditions | Bliss interaction score
[2] | -0.0119
[3] | -0.253
[4] | -0.0196
[5] | -0.0813

C[C@H]1c2cccc(O)c2C(=O)C2=C(O)[C@]3(O)C(=O)C(C(N)=O)=C(O)[C@@H](N(C)C)[C@@H]3[C@@H](O)[C@@H]21 [Doxycycline] + C[C@@H](O)[C@H]1C(=O)N2C(C(=O)O)=C(SCCNC=N)C[C@H]12 [Imipenem]
fitness, [1], one replicate
Conditions | first compound 0.003875 µg/mL | first compound 0.00775 µg/mL | first compound 0.031 µg/mL | first compound 0.062 µg/mL
partner 0.005 µg/mL | ≥ 1 | 0.998 | 0.87 | 0.739
partner 0.01 µg/mL | ≥ 1 | 0.973 | 0.808 | 0.74
partner 0.02 µg/mL | ≥ 1 | 0.993 | 0.834 | 0.706

fitness, [1]
Conditions | partner 0.005 µg/mL | partner 0.0065 µg/mL | partner 0.01 µg/mL | partner 0.013 µg/mL | partner 0.02 µg/mL | partner 0.026 µg/mL
first compound 0.0155 µg/mL | 0.989 | 0.886 | 0.931 | 0.845 | 0.928 | 0.746
first compound 0.031 µg/mL | – | 0.825 | – | 0.826 | – | 0.789
first compound 0.062 µg/mL | – | 0.753 | – | 0.78 | – | 0.759

Conditions | Bliss interaction score
[2] | 0.0141
[3] | 0.222
[4] | -0.0172
[5] | -0.0283

C[C@H]1c2cccc(O)c2C(=O)C2=C(O)[C@]3(O)C(=O)C(C(N)=O)=C(O)[C@@H](N(C)C)[C@@H]3[C@@H](O)[C@@H]21 [Doxycycline] + Clc1ccc(COC(Cn2ccnc2)c2ccc(Cl)cc2Cl)c(Cl)c1 [Miconazole]
fitness, [1], one replicate
Conditions | first compound 0.003875 µg/mL | first compound 0.00775 µg/mL | first compound 0.031 µg/mL | first compound 0.062 µg/mL
partner 1.25 µg/mL | 0.936 | 0.934 | 0.852 | 0.731
partner 2.5 µg/mL | 0.925 | 0.964 | 0.878 | 0.74
partner 5 µg/mL | 0.954 | 0.96 | 0.854 | 0.689

fitness, [1]
Conditions | partner 1.073 µg/mL | partner 1.25 µg/mL | partner 2.145 µg/mL | partner 2.5 µg/mL | partner 4.29 µg/mL | partner 5 µg/mL
first compound 0.0155 µg/mL | 0.947 | 0.923 | 0.96 | 0.936 | 0.895 | 0.911
first compound 0.031 µg/mL | 0.937 | – | 0.95 | – | 0.912 | –
first compound 0.062 µg/mL | 0.895 | – | 0.908 | – | 0.835 | –

Conditions | Bliss interaction score
[2] | -0.0138
[3] | 0.0453
[4] | 0.0575
[5] | 0.0669
